Measurements taken from US20120183580A1, “Analgesic Composition for Transbuccal Administration” (priority 2011, published 2012).
Read-outs that look alike come from different tables or passages of the source. Where a SMILES comes first, the peptide text is derived from it.

Tests used:
[1] = cited from earlier work; for bioavailability by the sublingual route: oxytocin in physiological saline solution
rats [2] = assay: elevated-plus maze test; settings: rat, in vivo
Text: Two opposite arms of the elevated-plus maze are enclosed by high walls (closed arms) while the other two are not (open arms). The test animals (rats) naturally prefer and spend more time in the closed aims.

Swiss albino mice [3] = test system: Swiss albino mice
Protocol: Swiss albino mice (˜20-30 g) were first trained on the rotarod, which accelerated from 0-20 rpm over 5 min, prior to the experiment. Only mice that were capable of staying on the rotarod for the entire 5 min period were used in this experiment. Mice were either administered with the peptide (1 or 10 mg/kg, sublingual), or morphine (20 mg/kg, subcutaneous). After drug administration, the animals are placed on the rotarod and the time taken for the mice to slip was recorded (up to 5 min), and subsequently at 1 h, 2 h and 3 h post peptide, and at 30 min, 1 h 30 min and 2 h 30 min post morphine. Statistical comparison was done by either Student's t-test or one-way ANOVA.

Swiss albino mice [4] = settings: mouse, in vivo
Protocol: Swiss albino mice (30-35 g) were injected with saline, the peptide (5 mg/kg, 50 mg/kg intraperitoneal) or morphine (0.5 mg/kg, 5 mg/kg, 50 mg/kg intraperitoneal). The experimenters are blind to the identity of the solutions. All mice were administered 5 mg charcoal (0.1 ml of 50 mg/ml charcoal solution) via oral gavage immediately after drug administration. At 30 min post-drug/charcoal administration, the mice were sacrificed by cervical dislocation and the GI tract was exposed and the location of the charcoal identified. The distance the charcoal traveled in the intestine from the stomach was measured and expressed as % of total length of the GI tract.

Swiss albino mice [5] = test system: Swiss albino mice; remark: listed apart in the source
Protocol: Swiss albino mice (˜30-40 g) were first placed into their respective chambers with a 20 min pre-treatment recording. Only mice showing at least 50 counts/5 min are used in the experiments. Mice were administered saline (control), peptide (5 or 50 mg/kg) or morphine (50 mg/kg). Experimenters were blind to the identity of the drug solutions. […] Statistical comparison was done by 2-way ANOVA.

Swiss albino mice [6] = assay: toxicity, multiple dose regimen; type: in vivo; settings: 8 or 80 mg/kg intraperitoneal daily, 14 days
Protocol: (§1) Swiss albino mice were administered with the peptide at 8 mg/kg or 80 mg/kg (intraperitoneal) once daily for 14 days. Control mice received saline. At the end of the period, all mice were killed, dissected and observed for any obvious abnormality. Weights of the major organs, including brain, heart, lung, liver, spleen and kidney, were recorded.

rats [7] = settings: 1 or 50 mg/kg intraperitoneal, vs saline control
Text: The open field was divided into 16 equal size squares (25×25 cm). The 4 squares at the centre are assigned a low anxiety score (0) while those at the 4 corners are assigned a high anxiety score (2). The remaining 8 squares are assigned a medium score (1). A rat entering each square will be given the score assigned to that square. The sum total obtained within the 5-min test period divided by the number of squares entered is the anxiety score for that rat. Diazepam was used as positive control. Statistical comparison was done by Student's t-test.

[8] = pharmacokinetics: plasma concentration by LC/MS/MS after sublingual, intravenous, oral, intraperitoneal administration; type: in vivo, mice; settings: mouse
Protocol: The peptide (1, 5, 15 and 25 mg/kg, 0.5 ml/kg) was administered sublingually to mice. Upon reaching specified time points of 1, 5, 15, 30, 60 and 120 min post-dose, each mouse was sacrificed and blood samples were collected via cardiac puncture. Plasma samples were then extracted and analyzed under LC/MS/MS.
Systemic exposure of the peptide was also studied through intravenous, oral (gavage) and intraperitoneal routes.

Sprague-Dawley rats = assay: acute effect on blood pressure in anesthetized rats; type: in vivo; settings: for effect on blood pressure: 5 and 20 mg/kg
Protocol: Sprague-Dawley rats (˜300 g) were anesthetized and the carotid artery was cannulated for blood pressure measurement. Drugs were administered by the pre-determined route. A pulse transducer was secured across the thoracic region of the rat to allow measurement of respiration rate. Blood pressure was recorded for at least 15 min or until a relatively stable blood pressure was observed.

mice = assay: acute high dose toxicity; type: in vivo
Protocol: (§2) Acute toxicity was determined by both oral and intravenous administration of the peptide. Three mice were given a dose of peptide at 2 g/kg orally by gavage, 5 ml/kg.

acute high dose toxicity = type: in vivo, mice; settings: mouse, in vivo; intravenous, mice
Protocol: as §2

C57 mice = type: in vivo; settings: 8 or 80 mg/kg intraperitoneal once daily for 14 days
Protocol: as §1
The multiple dose toxicity testing was repeated exactly as described above except that C57 mice were used instead of Swiss albino mice. Similar results were obtained in terms of body weights, vital organ weights and behavior of control and treated animals (data not shown).

Swiss albino mice [9] = assay: toxicity, single dose regimen; type: in vivo; settings: single dose 8 or 80 mg/kg intraperitoneal, day 14
Protocol: Swiss albino mice were administered with the peptide at 8 mg/kg or 80 mg/kg (intraperitoneal) on day 1 and then observed for 14 days. Control mice received saline. At the end of the period, all mice were sacrificed, dissected and observed for any obvious abnormality. Weights of the major organs, including brain, heart, lung, liver, spleen and kidney, were recorded.

For `NC(=O)CC[C@@H]1NC(=O)[C@H](Cc2ccccc2)NC(=O)[C@H](Cc2ccc(O)cc2)NC(=O)CCSSC[C@@H](C(=O)N2CCC[C@H]2C(=O)N[C@H](CCCN=C(N)N)C(=O)NCC(N)=O)NC(=O)[C@H](CC(N)=O)NC1=O` [desmopressin], the “bioavailability by the sublingual route” value [1] is listed as “about 0.25%”.

With `CN1C(=O)CN=C(c2ccccc2)c2cc(Cl)ccc21` [diazepam] the “time spent in the open or closed arms” value (rats [2]) was “reversed the times spent in open and closed arms”.

For `CN1CC[C@]23c4c5ccc(O)c4O[C@H]2[C@@H](O)C=C[C@H]3[C@H]1C5` [morphine, reference compound], the “motor-coordination (time on rotarod)” value (Swiss albino mice [3]; mouse, in vivo) was “No statistical significant effects”, the “GI motility (distance traveled by charcoal)” value (Swiss albino mice [4]) was “dose-dependently decreased GI motility” and the “locomotor activity vs control” value (Swiss albino mice [5]; mouse, in vivo) was “significant increase in locomotive activities”.

For `CC[C@H](C)[C@@H]1NC(=O)[C@H](Cc2ccc(O)cc2)NC(=O)[C@@H](N)CSSC[C@@H](C(=O)N2CCC[C@H]2C(=O)N[C@@H](CC(C)C)C(=O)NCC(N)=O)NC(=O)[C@H](CC(N)=O)NC(=O)[C@H](CCC(N)=O)NC1=O` [oxytocin], the bioavailability ([1]; formulation including 0.75% w/w sodium taurocholate (tablet form)) is given as 27% and the “bioavailability by the sublingual route” value [1] is given as 0.007-0.07%.

In the case of `C[C@@H](O)[C@H](NC(=O)[C@@H]1CCCN1C(=O)[C@H](Cc1ccccc1)NC(=O)[C@@H]1CCCN1C(=O)[C@@H](N)CC(N)=O)C(=O)N[C@@H](Cc1c[nH]c2ccccc12)C(=O)N[C@@H](CCCNC(=N)N)C(=O)N[C@@H](CCCCN)C(=O)N[C@@H](CCCNC(=N)N)C(=O)N1CCC[C@H]1C(=O)NCC(=O)O` [the peptide, NPFPTWRKRPG] (H-NPFPTWRKRPG-OH; N-terminus and C-terminus assumed), the organ appearance (Swiss albino mice [6]) is reported as “All organs appeared normal”, the anxiety score (rats [7]) is reported as “did not show any effect” and the bioavailability ([8]; 25 mg/kg, sublingual route, AUC compared to intravenous route) is reported as 44%. The Tmax ([8]; after sublingual administration, read-out: time of highest level in the plasma (converted)) was 5 min, the “effect on blood pressure” value (Sprague-Dawley rats; intravenous route) was “decreased in blood pressure” and the “effect on blood pressure” value (Sprague-Dawley rats; sublingual or intraperitoneal routes) was “did not cause any changes in blood pressure”. The “heart rate and respiration rate” value (Sprague-Dawley rats; all experiments (5 and 20 mg/kg, all routes)) was “No significant changes”, the clinical observation (mice; 62.5 mg/kg intravenous) was “appeared sedated” and the “clinical observation, surviving mice” value (mice; 125 mg/kg intravenous) was “appeared heavily sedated for several hours”. For the same compound, the clinical observation (mice; 2 g/kg oral by gavage) was “appeared sedated with much decreased activity”, the LD50 at 2 weeks (acute high dose toxicity) was ~125 mg/kg and the “motor-coordination (time on rotarod)” value (Swiss albino mice [3]; 1 or 10 mg/kg sublingual, up to 3 h post-dose) was “No statistical significant effects”. The “locomotor activity vs control” value (Swiss albino mice [5]; 5 or 50 mg/kg, within 4 h of drug administration) was “no significant difference”, the death (C57 mice) was “No death occurred” and the organ appearance (Swiss albino mice [9]) was “All organs appeared normal”.
